Consider one molecule from US10709724B2, “Methods of treating mitochondrial dysfunction” (Ecole Polytechnique Federale de Lausanne (EPFL), priority 2011, dated 2020).

Assay [1] concerns C2C12 myotubes, Hepa1.6 and HEK293T cells. Nature of the assay: Total intracellular NAD+ content after NR in cell lines. The format is cell-based, murine and human. The settings on record: 24 hrs. The text has this: Murine Hepa1.6 and HEK293T cells were maintained in 4.5 g/L glucose DMEM, 10% FCS. For the transfection of HEK293T cells JetPei was used (Polyplus transfections, Illkirch, France) according to the description of the company. PARP-2 depletion and overexpression took place as described in (Bai et al. 2007).
C2C12 cells were maintained in 4.5 g/L glucose DMEM, 10% FCS and were differentiated in 4.5 g/L glucose DMEM, 2% horse serum for 2 days, when cells were considered myofibers. PARP-2 was depleted from C2C12 cells using lentiviral shRNA system (MISSION Lentiviral Vectors, Sigma-Aldrich). The vectors contained the interfering and control sequences described in (Bai et al. 2007). C2C12 cells were transduced with 20 MOI virus and were selected with […] puromycin. Cells withstanding puromycin selection were subcultured. […] The efficiency of knock-down at the mRNA level was assessed by RT-qPCR.
NAD^+ NAM Determination. NAD^+ levels in cultured cells were determined using a commercial kit (Enzychrom™, BioAssays Systems, CA). For tissue samples NAD^+ and NAM levels were determined as described in (Sauve et al., 2005). […] Clear supernatant was injected onto HPLC C-18 column with 20 mM ammonium acetate eluent to separate NAD^+ and NAM from other cellular components, NAD^+ and NAM peaks (260 nm absorbance) were collected. […]

Another assay concerns C57Bl/6J mice. Kind of assay: NAD+ content in mouse tissues after one week of supplemented chow. The format is in vivo. As to conditions: 400 mg/kg/day in chow. Here is the method: Animal Experiments. […] In other animal experiments, 8 weeks-old male C57Bl/6J mice were purchased from Charles River and powder chow (D12450B) and high fat (D12492) diets were from Research Diets Inc (New Brunswick, N.J., USA). 80 ml of water per kg of powder CD were used to make food pellets. 40 ml of water per kg of powder HFD were used to make food pellets. […] Mice were housed separately, had ad libitum access to water and food and were kept under a 12 h dark-light cycle. Mice were fed with homemade pellets from 10 weeks of age. […] All animal experiments were carried out according to local national and EU ethical guidelines. To monitor body weight, mice were weighed and the food consumption was measured each week on the same day. In case of PJ34 treatment, mice received each 12 h (at 7:00 and 19:00) 10 mg/kg PJ34 by intraperitoneal injection for 5 continuous days. In all studies animals were killed (at 14:00) either after CO2 inhalation or cervical dislocation after 6 h of fasting (starting at 8:00), and tissues were collected and processed as specified below. […] Plasma insulin and was determined in heparinized plasma samples using specific ELISA kits (Mercodia). Blood samples were collected in heparinized tubes and plasma was isolated after centrifugation. Plasma parameters were measured using a Cobas c111 (Roche Diagnostics). […] The respiratory quotient was the ratio of CO2 production over O2 consumption. During actimetry, beamline crossings were summarized each 15 minutes.
NAD^+ NAM Determination. NAD^+ levels in cultured cells were determined using a commercial kit (Enzychrom™, BioAssays Systems, CA). […] 70 L of ice-cold 7% perchloric acid was then added and the sample was vortexed and sonicated three times, then centrifuged. Clear supernatant was removed and neutralized by additions of 3 M NaOH and 1 M phosphate buffer (pH=9), then centrifuged. Clear supernatant was injected onto HPLC C-18 column with 20 mM ammonium acetate eluent to separate NAD^+ and NAM from other cellular components, NAD^+ and NAM peaks (260 nm absorbance) were collected. Collections were lyophilized to dryness and subjected to MALDI-TOF analysis. […] Corrections were applied for isotopic abundance.

In the case of `NC(=O)c1ccc[n+]([C@@H]2O[C@H](CO)[C@@H](O)[C@H]2O)c1` [NR, nicotinamide riboside], in assay [1] (0.5 mM), the “ability to increase intracellular NAD+ compared with NMN and NA” value is “at least, similar to that of these other precursors”. Also, the “intracellular NAD+ levels” value in assay [1] was “dose-dependently increased intracellular NAD^+ levels”. For the same molecule, in the assay on C57Bl/6J mice, the “NAD+ levels in liver” value is listed as “increased NAD^+ levels in liver” and the “mitochondrial NAD+ levels in mouse liver” value was “mitochondrial NAD^+ levels were enhanced”. Moreover, in the assay with C57Bl/6J mice (quadriceps), the “muscle NAD+ content” value is recorded as “significantly enhanced muscle NAD^+ content”.
